According to article PMC2911999 (Chemical biology & drug design, 2010):

Target: rhodopsin (Bos taurus, UniProt P02699)
Assay: extra MII stabilization assay
Type: biochemical

rhodopsin, sequence (P02699 whole entry): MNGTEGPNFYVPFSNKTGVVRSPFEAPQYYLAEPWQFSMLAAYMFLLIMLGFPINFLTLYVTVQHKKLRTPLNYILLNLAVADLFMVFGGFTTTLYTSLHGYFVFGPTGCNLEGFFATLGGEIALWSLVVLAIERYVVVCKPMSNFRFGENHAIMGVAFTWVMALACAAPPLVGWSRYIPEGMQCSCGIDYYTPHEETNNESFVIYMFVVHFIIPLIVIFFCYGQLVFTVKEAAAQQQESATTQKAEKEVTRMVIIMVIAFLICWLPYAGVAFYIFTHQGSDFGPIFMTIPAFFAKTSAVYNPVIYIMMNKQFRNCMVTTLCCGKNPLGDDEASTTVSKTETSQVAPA

AW 00987 [compound 5]
EC50: 11.8 ± 6.7 mM

KM 05703 [compound 4]
EC50: 3 ± 0.28 mM

RJC 01340 [compound 3]
EC50: 16.3 ± 12.3 mM
